Data taken from the supplement of paper PMC10307832.

How the values were obtained:
Experiment in all cases: relative viability (nuclei count vs DMSO), 5 days (fraction); higher = more cells survive
[1] = compound: CCc1cnn2c(NCc3ccc[n+]([O-])c3)cc(N3CCCC[C@H]3CCO)nc12 [Dinaciclib]
Method in brief: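 Nuclei counted with MetaXpress define viability as the ratio of treated to vehicle wells, given as a median across plates. The lung cancer cell lines were in 1536-well plates, pinned with five √10-spaced library-drug doses and imaged at 4× after 5 days and Hoechst staining. Plates passed with control CV below 25% and at least one doubling.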

[2] = compound: CCc1cnn2c(NCc3ccc[n+]([O-])c3)cc(N3CCCC[C@H]3CCO)nc12 [Dinaciclib] + COc1cc2c(Oc3ccc(NC(=O)C4(C(=O)Nc5ccc(F)cc5)CC4)cc3F)ccnc2cc1OCCCN1CCOCC1 [Foretinib] (partner 0.25 µM)
Method in brief: (§1)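 Relative viability equals treated-well nuclei counts divided by vehicle-well nuclei counts. Counts came from 4× images of lung cancer cell lines grown in 1536-well plates for 5 days after pin-tool dosing on the day after seeding. Dosing used one drug alone or a fixed anchor-drug dose plus five library-drug doses (not always all listed) in √10 steps, and values are medians of duplicate plates.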

[3] = compound: CCc1cnn2c(NCc3ccc[n+]([O-])c3)cc(N3CCCC[C@H]3CCO)nc12 [Dinaciclib] + C[C@@H](Oc1cc(-c2cnn(C3CCNCC3)c2)cnc1N)c1c(Cl)ccc(F)c1Cl [Crizotinib] (partner 1 µM)
Method in brief: as §1

[4] = compound: CCc1cnn2c(NCc3ccc[n+]([O-])c3)cc(N3CCCC[C@H]3CCO)nc12 [Dinaciclib] + C[C@]1(O)C[C@@H](c2nc(-c3ccc4ccc(-c5ccccc5)nc4c3)c3c(N)nccn32)C1 [Linsitinib] (partner 1 µM)
Method in brief: as §1

[5] = compound: CCc1cnn2c(NCc3ccc[n+]([O-])c3)cc(N3CCCC[C@H]3CCO)nc12 [Dinaciclib] + N=C(N)NC(=N)NCCc1ccccc1 [Phenformin] (partner 250 µM)
Method in brief: as §1

Cell Line	relative viability ([1]; 0.009487 µM)	relative viability ([1]; 0.03 µM)	relative viability ([1]; 0.09487 µM)	relative viability ([1]; 0.3 µM)	relative viability ([2]; first compound 0.009487 µM)	relative viability ([2]; first compound 0.03 µM)	relative viability ([2]; first compound 0.09487 µM)	relative viability ([2]; first compound 0.3 µM)	relative viability ([3]; first compound 0.009487 µM)	relative viability ([3]; first compound 0.03 µM)	relative viability ([3]; first compound 0.09487 µM)	relative viability ([3]; first compound 0.3 µM)	relative viability ([4]; first compound 0.009487 µM)	relative viability ([4]; first compound 0.03 µM)	relative viability ([4]; first compound 0.09487 µM)	relative viability ([4]; first compound 0.3 µM)	relative viability ([5]; first compound 0.009487 µM)	relative viability ([5]; first compound 0.03 µM)	relative viability ([5]; first compound 0.09487 µM)	relative viability ([5]; first compound 0.3 µM)
NCI-H23	0.633	0.176	0.109	0.126	0.57	0.187	0.108	0.15	0.47	0.171	0.107	0.0907	0.508	0.142	0.105	0.109	0.807	0.31	0.114	0.116
HCC-827	1.1	0.85	0.188	0.168	1.09	0.682	0.147	0.13	0.946	0.333	0.16	0.15	0.951	0.747	0.181	0.147	0.385	0.339	0.121	0.123
HCC-78	0.914	0.326	0.175	0.199	0.613	0.386	0.174	0.18	0.352	0.181	0.108	0.137	0.556	0.348	0.116	0.14	0.744	0.332	0.17	0.165
UMC-11	0.405	0.204	0.179	0.196	0.277	0.189	0.166	0.19	0.157	0.0965	0.094	0.0987	0.282	0.167	0.169	0.168	0.214	0.197	0.192	0.185
NCI-H1975	0.969	0.442	0.164	0.144	0.868	0.185	0.107	0.099	0.765	0.222	0.139	0.129	0.632	0.265	0.13	0.141	0.364	0.153	0.113	0.1
NCI-H1563	1.25	0.552	0.314	0.286	1.14	0.504	0.327	0.291	1.03	0.379	0.34	0.303	1.39	0.794	0.331	0.376	0.745	0.365	0.259	0.236
COR-L23	0.891	0.162	0.0991	0.103	0.871	0.118	0.0996	0.0936	0.456	0.0842	0.0684	0.0575	0.736	0.0901	0.0662	0.0681	0.296	0.0764	0.0763	0.069
CAL-12T	0.479	0.163	0.121	0.137	1.07	0.105	0.13	0.116	0.503	0.0856	0.0861	0.103	0.452	0.175	0.112	0.145	0.188	0.103	0.107	0.097
SW 1573	0.83	0.133	0.0862	0.081	0.827	0.526	0.0711	0.0971	0.608	0.0718	0.066	0.0807	0.679	0.109	0.0988	0.0866	0.303	0.0685	0.077	0.0659
NCI-H2126	1.03	0.563	0.247	0.207	1.08	0.803	0.194	0.312	1.01	0.565	0.213	0.215	0.692	0.555	0.197	0.207	0.443	0.258	0.221	0.21
